Laboratory results published in patent publication US11872313B2, “Prodrug compositions, prodrug nanoparticles, and methods of use thereof” (Washington University, priority 2010, dated 2024).
“Also recorded” adds a separate entry of the source.

Experiments:
[1] = In vivo release of fumagillin dissolved in a lipid membrane; conditions: FIG. 19B
Description: (§1) FIG. 19A and FIG. 19B depicts two graphs illustrating that fumagillin dissolved in a lipid membrane is stable in vitro but rapidly lost in vivo.

[2] = In vitro release of fumagillin dissolved in a lipid membrane; assay type: physicochemical; conditions: FIG. 19A
Description: as §1

Vx2 tumor = Vx2 tumor model, angiogenesis MR contrast enhancement; assay type: in vivo, rabbit; conditions: 1.5 T, FIG. 4A

Structure (SMILES)	In vivo release of fumagillin [1]	In vitro release of fumagillin [2]	change in angiogenesis contrast enhancement (Vx2 tumor)
CO[C@@H]1[C@H](OC(=O)/C=C/C=C/C=C/C=C/C(=O)O)CC[C@]2(CO2)[C@H]1[C@@]1(C)O[C@@H]1CC=C(C)C [fumagillin]	rapidly releases in vivo; also recorded: occurs in a matter of minutes	sustained over 4 days	
CC(=O)O[C@H]1C(=O)[C@@]2(C)[C@H]([C@H](OC(=O)c3ccccc3)[C@]3(O)C[C@H](OC(=O)[C@H](O)[C@@H](NC(=O)c4ccccc4)c4ccccc4)C(C)=C1C3(C)C)[C@]1(OC(C)=O)CO[C@@H]1C[C@@H]2O [non-prodrug paclitaxel, paclitaxel]			non-significant change
